Columns and labels:
[1] = in vitro; conditions: mouse, ht-22
[2] = target: T1, Dual specificity tyrosine-phosphorylation-regulated kinase 3 (Homo sapiens, UniProt O43781); assay: biochemical; type: cell-based, Sf9
T1 sequence (O43781 whole entry): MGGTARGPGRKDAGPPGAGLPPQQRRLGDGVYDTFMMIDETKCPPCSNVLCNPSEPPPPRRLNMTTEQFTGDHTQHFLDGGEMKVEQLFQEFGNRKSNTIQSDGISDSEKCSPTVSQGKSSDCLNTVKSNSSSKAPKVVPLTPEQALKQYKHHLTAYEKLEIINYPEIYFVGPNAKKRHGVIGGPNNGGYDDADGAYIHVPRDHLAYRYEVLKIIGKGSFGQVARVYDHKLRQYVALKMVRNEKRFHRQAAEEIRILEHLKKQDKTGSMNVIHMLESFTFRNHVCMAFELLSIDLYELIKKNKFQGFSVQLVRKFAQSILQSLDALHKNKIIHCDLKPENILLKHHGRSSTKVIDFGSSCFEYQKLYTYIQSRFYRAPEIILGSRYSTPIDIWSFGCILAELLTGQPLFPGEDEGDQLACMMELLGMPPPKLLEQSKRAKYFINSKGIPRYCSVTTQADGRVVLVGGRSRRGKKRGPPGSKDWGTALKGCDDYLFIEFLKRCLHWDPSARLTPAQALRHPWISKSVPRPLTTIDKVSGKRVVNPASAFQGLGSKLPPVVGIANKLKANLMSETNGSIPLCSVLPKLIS

[3] = target: T2, Dual specificity tyrosine-phosphorylation-regulated kinase 4 (Homo sapiens, UniProt Q9NR20); assay: biochemical; type: cell-based, Sf9
T2 sequence (Q9NR20 whole entry): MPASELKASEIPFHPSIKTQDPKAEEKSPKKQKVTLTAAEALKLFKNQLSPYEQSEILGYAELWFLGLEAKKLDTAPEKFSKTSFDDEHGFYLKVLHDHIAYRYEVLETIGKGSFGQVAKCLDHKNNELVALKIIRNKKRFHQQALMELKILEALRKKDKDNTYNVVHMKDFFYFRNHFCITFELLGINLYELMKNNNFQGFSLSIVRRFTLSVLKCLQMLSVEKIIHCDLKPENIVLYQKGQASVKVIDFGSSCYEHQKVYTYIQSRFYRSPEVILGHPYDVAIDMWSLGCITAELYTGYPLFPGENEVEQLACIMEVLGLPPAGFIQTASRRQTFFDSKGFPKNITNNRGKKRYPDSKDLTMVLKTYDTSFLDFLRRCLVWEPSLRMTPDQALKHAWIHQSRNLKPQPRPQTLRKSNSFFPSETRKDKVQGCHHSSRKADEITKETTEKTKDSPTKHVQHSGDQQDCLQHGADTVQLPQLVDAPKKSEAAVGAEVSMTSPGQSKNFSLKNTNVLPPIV

[4] = target: T3, Glycogen synthase kinase-3 beta (Homo sapiens, UniProt P49841); assay: biochemical; type: cell-based, Sf9
[5] = target: T3, Glycogen synthase kinase-3 beta
[6] = target: Casein kinase I isoform epsilon (Homo sapiens, UniProt P49674); assay: biochemical; type: cell-based, Sf9
[7] = target: T4, Dual specificity tyrosine-phosphorylation-regulated kinase 2 (Homo sapiens, UniProt Q92630); assay: biochemical; type: cell-based, Sf9
T4 sequence (Q92630 whole entry): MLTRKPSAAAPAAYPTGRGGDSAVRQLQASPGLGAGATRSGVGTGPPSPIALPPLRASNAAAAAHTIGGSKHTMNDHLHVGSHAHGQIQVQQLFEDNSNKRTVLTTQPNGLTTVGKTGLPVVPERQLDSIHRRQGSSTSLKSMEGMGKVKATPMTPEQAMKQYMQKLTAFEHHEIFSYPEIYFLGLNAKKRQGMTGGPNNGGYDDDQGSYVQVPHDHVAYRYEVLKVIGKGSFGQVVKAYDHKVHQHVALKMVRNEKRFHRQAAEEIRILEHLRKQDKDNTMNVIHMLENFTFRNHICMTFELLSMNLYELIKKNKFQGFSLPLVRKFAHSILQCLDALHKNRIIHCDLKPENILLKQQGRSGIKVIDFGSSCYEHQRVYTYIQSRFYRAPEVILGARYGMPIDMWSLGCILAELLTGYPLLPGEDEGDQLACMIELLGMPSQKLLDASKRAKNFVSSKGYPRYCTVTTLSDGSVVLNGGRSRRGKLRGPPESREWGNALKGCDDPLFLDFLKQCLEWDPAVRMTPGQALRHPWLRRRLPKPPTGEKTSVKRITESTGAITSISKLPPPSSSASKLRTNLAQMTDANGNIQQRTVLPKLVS

[8] = target: Dual specificity protein kinase CLK4 (Homo sapiens, UniProt Q9HAZ1); assay: biochemical
[9] = target: T5, Dual specificity protein kinase CLK1 (Homo sapiens, UniProt P49759); assay: biochemical; type: cell-based, Sf9
[10] = target: Dual specificity protein kinase CLK3 (Homo sapiens, UniProt P49761); assay: biochemical; type: cell-based, Sf9
[11] = target: T5, Dual specificity protein kinase CLK1
[12] = target: Dual specificity protein kinase CLK2 (Homo sapiens, UniProt P49760); assay: biochemical
[13] = target: Cyclin-dependent kinase 5/CDK5 activator 1 (Homo sapiens, UniProt Q00535); assay: biochemical; type: cell-based, Sf9
[14] = target: T5, Dual specificity protein kinase CLK1; assay: biochemical; type: cell-based, Sf9; remark: listed apart in the source

Cyclin-dependent kinase 5/CDK5 activator 1, sequence (Q00535 whole entry): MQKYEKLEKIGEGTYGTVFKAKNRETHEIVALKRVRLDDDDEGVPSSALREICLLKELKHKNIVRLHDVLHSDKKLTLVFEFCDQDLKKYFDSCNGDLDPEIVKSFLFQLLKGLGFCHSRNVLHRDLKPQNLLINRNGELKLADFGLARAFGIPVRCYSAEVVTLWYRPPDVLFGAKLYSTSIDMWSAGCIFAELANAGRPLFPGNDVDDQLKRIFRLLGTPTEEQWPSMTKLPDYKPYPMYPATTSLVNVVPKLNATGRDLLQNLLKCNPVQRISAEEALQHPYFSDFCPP
Cyclin-dependent kinase 5/CDK5 activator 1, sequence (Q15078 whole entry, further chain): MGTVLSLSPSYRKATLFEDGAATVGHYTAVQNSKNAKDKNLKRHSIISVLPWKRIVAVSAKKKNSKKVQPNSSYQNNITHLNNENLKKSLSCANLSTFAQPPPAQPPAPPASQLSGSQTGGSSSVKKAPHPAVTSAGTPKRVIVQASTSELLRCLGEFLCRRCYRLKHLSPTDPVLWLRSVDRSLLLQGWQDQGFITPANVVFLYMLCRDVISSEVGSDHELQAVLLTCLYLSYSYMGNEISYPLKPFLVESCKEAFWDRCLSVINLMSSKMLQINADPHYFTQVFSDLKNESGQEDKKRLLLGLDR
T3 sequence (P49841 whole entry): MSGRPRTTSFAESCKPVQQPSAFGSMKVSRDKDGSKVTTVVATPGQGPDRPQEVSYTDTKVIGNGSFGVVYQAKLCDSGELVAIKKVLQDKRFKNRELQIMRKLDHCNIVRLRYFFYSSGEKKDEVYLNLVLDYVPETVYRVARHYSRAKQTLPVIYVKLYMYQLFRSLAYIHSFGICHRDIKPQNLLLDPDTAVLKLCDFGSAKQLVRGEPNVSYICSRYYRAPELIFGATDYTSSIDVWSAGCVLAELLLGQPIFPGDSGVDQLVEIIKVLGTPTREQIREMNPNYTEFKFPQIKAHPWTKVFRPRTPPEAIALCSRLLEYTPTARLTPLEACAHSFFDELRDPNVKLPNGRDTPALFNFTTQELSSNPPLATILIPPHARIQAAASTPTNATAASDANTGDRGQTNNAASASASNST
Dual specificity protein kinase CLK3, sequence (P49761 whole entry): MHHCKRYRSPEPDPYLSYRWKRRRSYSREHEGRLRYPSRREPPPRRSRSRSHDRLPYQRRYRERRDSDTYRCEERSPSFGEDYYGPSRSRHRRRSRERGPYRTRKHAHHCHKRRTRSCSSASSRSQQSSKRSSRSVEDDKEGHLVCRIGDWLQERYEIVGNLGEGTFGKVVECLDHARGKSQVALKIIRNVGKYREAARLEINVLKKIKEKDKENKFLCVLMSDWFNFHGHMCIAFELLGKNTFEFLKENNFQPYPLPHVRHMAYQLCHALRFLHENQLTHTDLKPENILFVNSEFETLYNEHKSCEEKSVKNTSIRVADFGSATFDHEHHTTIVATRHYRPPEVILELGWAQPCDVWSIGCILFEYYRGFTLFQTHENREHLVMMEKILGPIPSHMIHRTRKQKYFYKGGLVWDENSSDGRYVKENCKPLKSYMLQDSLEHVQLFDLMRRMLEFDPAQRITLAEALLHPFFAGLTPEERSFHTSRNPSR
Dual specificity protein kinase CLK2, sequence (P49760 whole entry): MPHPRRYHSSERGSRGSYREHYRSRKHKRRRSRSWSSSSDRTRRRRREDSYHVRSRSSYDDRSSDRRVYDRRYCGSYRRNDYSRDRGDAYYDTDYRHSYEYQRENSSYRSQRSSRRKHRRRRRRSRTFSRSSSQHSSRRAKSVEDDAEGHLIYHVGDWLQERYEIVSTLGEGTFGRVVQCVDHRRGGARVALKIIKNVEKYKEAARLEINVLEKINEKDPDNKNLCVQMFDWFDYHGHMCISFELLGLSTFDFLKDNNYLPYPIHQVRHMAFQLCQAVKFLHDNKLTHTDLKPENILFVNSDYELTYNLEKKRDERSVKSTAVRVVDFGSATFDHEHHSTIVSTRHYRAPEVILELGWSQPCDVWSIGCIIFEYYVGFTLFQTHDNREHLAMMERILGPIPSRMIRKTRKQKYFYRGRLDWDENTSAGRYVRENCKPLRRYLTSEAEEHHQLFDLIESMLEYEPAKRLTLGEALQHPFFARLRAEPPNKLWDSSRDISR
Dual specificity protein kinase CLK4, sequence (Q9HAZ1 whole entry): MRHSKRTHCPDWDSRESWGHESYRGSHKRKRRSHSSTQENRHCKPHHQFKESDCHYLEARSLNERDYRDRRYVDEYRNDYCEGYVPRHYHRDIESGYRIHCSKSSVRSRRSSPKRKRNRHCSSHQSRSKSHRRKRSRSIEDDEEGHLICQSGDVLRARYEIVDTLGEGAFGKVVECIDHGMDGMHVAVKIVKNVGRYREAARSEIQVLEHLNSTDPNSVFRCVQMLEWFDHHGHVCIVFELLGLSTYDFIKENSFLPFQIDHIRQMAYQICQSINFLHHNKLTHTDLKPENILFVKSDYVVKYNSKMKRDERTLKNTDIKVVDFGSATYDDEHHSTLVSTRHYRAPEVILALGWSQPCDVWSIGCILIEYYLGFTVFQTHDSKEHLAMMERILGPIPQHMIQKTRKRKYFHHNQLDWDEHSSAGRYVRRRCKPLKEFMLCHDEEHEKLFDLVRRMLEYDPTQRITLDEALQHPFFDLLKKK
T5 sequence (P49759 whole entry): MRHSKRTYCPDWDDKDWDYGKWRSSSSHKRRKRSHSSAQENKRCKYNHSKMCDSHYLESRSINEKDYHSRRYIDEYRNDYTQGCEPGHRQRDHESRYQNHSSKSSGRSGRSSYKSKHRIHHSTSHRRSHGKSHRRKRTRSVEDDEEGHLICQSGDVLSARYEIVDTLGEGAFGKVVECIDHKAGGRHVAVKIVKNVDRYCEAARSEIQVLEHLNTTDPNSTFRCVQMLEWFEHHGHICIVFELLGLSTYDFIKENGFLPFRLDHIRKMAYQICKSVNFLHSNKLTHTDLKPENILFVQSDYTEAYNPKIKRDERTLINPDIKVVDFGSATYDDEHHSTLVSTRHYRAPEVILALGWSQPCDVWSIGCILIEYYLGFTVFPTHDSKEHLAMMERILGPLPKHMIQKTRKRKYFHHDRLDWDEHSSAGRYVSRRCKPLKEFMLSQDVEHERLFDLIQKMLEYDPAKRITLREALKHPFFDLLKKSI
Casein kinase I isoform epsilon, sequence (P49674 whole entry, canonical isoform): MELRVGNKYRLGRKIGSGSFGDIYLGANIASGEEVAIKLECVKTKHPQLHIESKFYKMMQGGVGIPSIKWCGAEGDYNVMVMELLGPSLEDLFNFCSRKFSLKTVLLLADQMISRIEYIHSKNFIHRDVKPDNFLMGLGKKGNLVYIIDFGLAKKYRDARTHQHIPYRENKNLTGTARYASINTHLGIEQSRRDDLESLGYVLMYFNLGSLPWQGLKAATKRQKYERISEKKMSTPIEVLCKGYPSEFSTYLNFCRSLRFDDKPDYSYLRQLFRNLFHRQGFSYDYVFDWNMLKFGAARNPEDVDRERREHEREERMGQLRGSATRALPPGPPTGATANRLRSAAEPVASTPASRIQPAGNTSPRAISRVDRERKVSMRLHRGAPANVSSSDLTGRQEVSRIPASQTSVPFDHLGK

Row | Compound | IC50 at 48 h [1] [nM] | IC50 [2] [nM] | IC50 [3] [nM] | IC50 [4] [nM] | Kd [5] [nM] | IC50 [6] [nM] | IC50 [7] [nM] | IC50 [8] [nM] | IC50 ([9]; read-out: IC50) [nM] | IC50 [10] [nM] | Kd [11] [nM] | IC50 [12] [nM] | IC50 [13] [nM] | IC50 [14] [nM] | IC50 ([9]; sf9)
1 | c1ccc(-c2ccc3[nH]ncc3c2)cc1 | 42500 | 5850 | > 10000 | 7510 | 1980 | > 10000 | 1250 | 15 | 24.2 | 1690 | 1.63 | 211 | 1800 | 39.6 | –
2 | COC(=N)c1nc2ccc3ncnc(Nc4ccc(OC)cc4F)c3c2s1 | 21600 | > 10000 | > 10000 | 5330 | 160 | > 10000 | 323 | 79.6 | 111 | > 10000 | 7.63 | > 10000 | > 10000 | 1210 | –
3 | Oc1ccc(-c2cnc3[nH]cc(-c4ccc(F)cc4)c3c2)cc1O | 9000 | > 10000 | > 10000 | > 10000 | > 10000 | > 10000 | 3350 | 890 | 180 | > 10000 | 70.8 | 1990 | > 10000 | 570 | –
4 | O=C(O)c1nc2ccccc2c2[nH]c3c(I)cccc3c12 | > 100000 | – | > 10000 | > 10000 | 475 | > 10000 | – | 316 | 14.6 | > 10000 | 6.22 | 5140 | – | 3610 | –
5 | CN1Cc2nn(C)c(C#N)c2-c2cnc3[nH]c(F)c(c3c2)-c2cn(nc2C(F)(F)F)CCCC1=O | > 100000 | > 10000 | > 10000 | 3390 | 936 | > 10000 | 1100 | > 10000 | – | > 10000 | – | 2500 | > 10000 | – | Not Active
6 | COc1ccc2c3ccnc(Cl)c3n(CC#N)c2c1 | 97000 | 1220 | 8370 | > 10000 | 2580 | > 10000 | 813 | 23.8 | 88.3 | 4920 | 8.7 | 630 | > 10000 | 157 | –
7 | COC1=CC2C(=O)NC3=Cc4ccc(OC)cc4C(=C1OC)C32 (stereo not given) | 20900 | 23.5 | 3690 | 2200 | 396 | > 10000 | 26.8 | 6.7 | 31.8 | 640 | 0.58 | 33.3 | > 10000 | 11.4 | –
8 | CN1Cc2nn(C)c(C#N)c2-c2cnc3[nH]cc(c3c2)-c2cn(nc2C(F)(F)F)CCCC1=O | 51300 | > 10000 | > 10000 | > 10000 | 7290 | > 10000 | 8780 | – | – | > 10000 | – | 6710 | > 10000 | – | –
9 | CCN1/C(=C/C(C)=O)Sc2ccc(O)cc21 | > 100000 | 82.6 | 894 | 4400 | 1640 | 2980 | 226 | 10.9 | – | 4790 | 1.27 | 315 | > 10000 | 44.2 | –
10 | O=C1NC(=Nc2c(Cl)cccc2Cl)S/C1=C\c1ccc2nccnc2c1 | 27800 | 22.7 | 108 | 3090 | 939 | 1770 | 15.6 | 14 | 13.6 | 92.6 | 0.395 | 95.3 | > 10000 | 21.1 | –
11 | CN(C)c1nccc(-c2cnn3ncccc23)n1 | 58600 | 4450 | 9590 | > 10000 | > 10000 | > 10000 | 3270 | 219 | – | 2970 | 5.38 | – | 9670 | 319 | –
12 | CN1C(=O)/C(=C/c2ccc3c(c2)OCO3)N=C1N [LEUCETTAMINE B] | > 100000 | 4890 | 6370 | > 10000 | > 10000 | > 10000 | 2730 | 396 | – | > 10000 | 36.9 | 3090 | – | 646 | –
13 | Oc1ccc(-c2n[nH]c3ncc(-c4ccc(O)c(O)c4)cc23)cc1 | 5500 | 71.9 | 26.8 | 159 | 260 | 38.9 | 32.9 | 4.7 | 37.9 | 207 | 1.31 | 14.3 | 38.4 | 10.4 | –
14 | COc1cc(/C=C/C(=O)CC(=O)/C=C/c2ccc(O)c(OC)c2)ccc1O [CURCUMIN] | 52400 | 4260 | > 10000 | > 10000 | > 10000 | > 10000 | 1060 | 9750 | 4920 | > 10000 | > 1000 | > 10000 | > 10000 | > 10000 | –
15 | Cc1nc2ccc(-c3cc(N)nc(N)c3)nc2n1C(C)C | 5800 | > 10000 | 171 | > 10000 | 9590 | 2900 | 10 | 9.5 | – | 1190 | – | 36.5 | 273 | – | –
16 | O=c1c2c(O)cc(O)cc2oc2c(O)ccc(O)c12 [DEMETHYLBELLIDIFOLIN] | 2500 | > 10000 | > 10000 | > 10000 | > 10000 | > 10000 | 2710 | 146 | – | 7530 | 29.7 | 1700 | > 10000 | 239 | –
17 | CCOC(=O)c1c(/C(C#N)=C\N)c2ccc(Cl)c(Cl)c2n1C | > 100000 | > 10000 | > 10000 | > 10000 | > 10000 | > 10000 | > 10000 | 14.8 | – | – | – | – | > 10000 | – | –

— ChEMBL document CHEMBL5247649, “Comparative Efficacy and Selectivity of Pharmacological Inhibitors of DYRK and CLK Protein Kinases” (J Med Chem, 2023)
